Test system: reconstituted human epidermis with melanocytes of phototype II
Test: Tanning properties in reconstituted human epidermis with melanocytes; semiquantification of melanin content by Fontana-Masson staining and image analysis
Format: cell-based
Conditions: for Change of melanin content / pigmentation, in words: IBMX 100 μM vs untreated controls
Procedure: The epidermis with melanocytes of phototype II is reconstituted in an air/liquid interface system (directly at the air-liquid interface) in a culture medium from day 0 to day 4 for a complete differentiation. The culture is then continued from day 4 to day 14 in this same medium but without bovine pituitary extract (BPE). The test preparations were administered in the […] from day 4 to day 14. The medium and the test preparations are each added on day 4, day 7 and day 11. DMSO and THF are tested in parallel and IBMX (100 μM) is used as the positive reference.
After embedding in paraffin, a Fontana-Masson staining of the tissue sections is performed. The microscope slides are covered with a special medium and examined using a light microscope of the Leica DM2000 type with a digital camera. After staining, images are recorded and a quantification is performed by image analysis (on the basis of 12 images). For quantification of the melanin content in each image, the Leica QWin3 software is used. Two measurements are carried out. The first measurement gives the total intensity of the coloration, i.e., a lighter or darker melanin is reflected. The second measurement relates to the marked image area, i.e., the area of the epidermis containing the melanin. In these measurements all cell layers except the stratum corneum are included.
The procedure used was the same as that carried out in example 1 and 2. After determining the cytotoxic concentrations, substance (Ia) is tested at 8 μM, substance (Ib) at 40 μM (solvent: 0.1% THF) and substance (IIa) at 20 μM (solvent: 0.1% DMSO).
After determining the cytotoxic concentrations of these substances, substance (Ib) is tested at 40 μM in DMSO (0.1%), substance (IIa) is tested at 20 μM in DMSO (0.1%), the mixture of (Ib)/(IIa) is tested at 40/20 μM in DMSO (0.1% and rhamnose is tested at 40 μM in THF (0.2%).

[1] = second experiment, Ib 40 μM and IIa 20 μM vs DMSO, mixture 40/20 μM, rhamnose 40 μM
[2] = first experiment, Ia 8 μM, Ib 40 μM vs THF, IIa 20 μM vs DMSO

SMILES	Change of melanin content / pigmentation, in words [1]	Change of melanin content / pigmentation, in words [2]	also measured
C[C@H](O)[C@H](O)[C@@H](O)[C@@H](O)C=O [Rhamnose, rhamnose, reference compound]	tendency to increase melanin synthesis is only faintly pronounced	–	Quantification after Fontana-Masson staining, relative to the untreated controls (second experiment, 40 μM in THF (0.2%)): 109%
Cc1cc(=O)c2c(O)cc(O[C@@H]3O[C@@H](C)[C@H](O)[C@@H](O)[C@H]3O)cc2o1 [Substance (Ib), 7-[(6-deoxy-α-L-mannopyranosyl)oxy]-5-hydroxy-2-methyl-4H-1-benzopyran-4-one]	significant increase	significant increase	Quantification after Fontana-Masson staining, relative to the untreated controls (first experiment, 40 μM, solvent 0.1% THF, day 4 to day 14): 174% (p < 0.05); Quantification after Fontana-Masson staining, relative to the untreated controls (second experiment, 40 μM in DMSO (0.1%)): 167% (p < 0.01)
Cc1cc(=O)c2c(O[C@@H]3O[C@@H](C)[C@H](O)[C@@H](O)[C@H]3O)cc(O)cc2o1 [Substance (IIa), 5-[(6-deoxy-α-L-mannopyranosyl)oxy]-7-hydroxy-2-methyl-4H-1-benzopyran-4-one]	significant increase	significant increase	Quantification after Fontana-Masson staining, relative to the untreated controls (first experiment, 20 μM, solvent 0.1% DMSO, day 4 to day 14): 143% (p < 0.05); Quantification after Fontana-Masson staining, relative to the untreated controls (second experiment, 20 μM in DMSO (0.1%)): 147% (p < 0.05)
Cc1cc(=O)c2c(O)cc(O[C@@H]3O[C@H](CO)[C@@H](O)[C@H](O)[C@H]3O)cc2o1 [Substance (Ia), 7-(β-D-glucopyranosyloxy)-5-hydroxy-2-methyl-4H-1-benzopyran-4-one]	–	unambiguous tendency to increase pigmentation	Quantification after Fontana-Masson staining, relative to the untreated controls (first experiment, 8 μM, day 4 to day 14): 125%
CC(C)Cn1c(=O)n(C)c(=O)c2[nH]cnc21 [IBMX, reference compound]	significant increase	significant increase	Quantification after Fontana-Masson staining, relative to the untreated controls (first experiment, IBMX 100 μM, positive reference, day 4 to day 14): 152% (p < 0.05); Quantification after Fontana-Masson staining, relative to the untreated controls (second experiment, IBMX 100 μM, positive reference): 150% (p < 0.01)

From patent US10722441B2, “Noreugenin glycoside derivatives” (Universitaet Hamburg, priority 2016, dated 2020)
